Literature values in patent publication US8187607B2, “Hapten-carrier conjugates and uses thereof” (Cytos Biotechnology AG, priority 2002, dated 2012).

Test system: cigarette smokers
Conditions: at 12 months

Compound: CC(NC(C)(C)C)C(=O)c1cccc(Cl)c1 (stereo not shown) [bupropion]
- Abstinence rates: about 30%
